Assay results reported in ChEMBL document CHEMBL1149625, “Rational design of 6-(2,4-diaminopyrimidinyl)-1,4-benzoxazin-3-ones as small molecule renin inhibitors” (Bioorg Med Chem, 2007).
In brackets after ≈: the same amount, converted by molar mass.

Assays:
physchem = settings: aqueous, pH 6.5, Solubility
[1] = Cmax in rat at […], iv or […], po; type: ADME, organism-based; settings: in vivo
[2] = Bioavailability in rat at […], po; type: ADME, organism-based; settings: in vivo
[3] = Volume of distribution at steady state in rat at […], iv or […], po; type: ADME, organism-based; settings: in vivo, read-out: Vdss
[4] = buffer, pH 6.5
[5] = Volume of distribution at steady state in rat at 1 mg/kg, iv or 5 mg/kg, po; type: ADME, organism-based; settings: in vivo, read-out: Vdss
[6] = Cmax in rat at 1 mg/kg, iv or 5 mg/kg, po; type: ADME, organism-based; settings: in vivo
[7] = Bioavailability in rat at 5 mg/kg, po; type: ADME, organism-based; settings: in vivo
in vivo [8] = settings: rat, po, 10 mg/kg
in vivo [9] = settings: rat, iv, 1 mg/kg
in vivo [10] = settings: rat, po, 10 mg/kg; remark: listed apart in the source
[11] = Bioavailability in dog at 5 mg/kg, po; type: ADME, organism-based, Canis lupus familiaris; settings: in vivo

`CCc1nc(N)nc(N)c1-c1ccc2c(c1)N(CCCOC)C(=O)C(CC)(c1cc(F)cc(F)c1)O2` (racemic) showed a solubility (physchem) of 2.6 µg/mL (≈ 5.23 µM).
With `CCNC(=O)CN1C(=O)C(C)(c2cc(F)cc(F)c2)Oc2ccc(-c3c(N)nc(N)nc3CC)cc21` (stereo not given) the Cmax [1] was 60 ng/mL, the bioavailability [2] was 14% and the Vd [3] was 3.1 L/kg. It also gave a solubility (physchem) of 89 µg/mL (≈ 179 µM).
For `CCc1nc(N)nc(N)c1-c1ccc2c(c1)N(CCCOC)C(=O)C(C)(c1cc(F)cc(F)c1)O2` (racemic), the solubility [4] was 87 µg/mL (≈ 180 µM), the Vd [5] was 4.5 L/kg and the Cmax [6] was 23 ng/mL. The bioavailability [7] was 0.4%.
With `CCc1nc(N)nc(N)c1-c1ccc2c(c1)N(CCCOC(F)(F)F)C(=O)C(C)(c1cc(F)cc(F)c1)O2` (stereo not given) the Cmax (in vivo [8]) was 200 ng/mL, the Vd (in vivo [9]) was 6.3 L/kg and the bioavailability (in vivo [10]) was 28%. For the same compound, the solubility (physchem) was 7.8 µg/mL (≈ 14.5 µM).
`CCc1nc(N)nc(N)c1-c1ccc2c(c1)N(CCCCO)C(=O)C(C)(c1cc(F)cc(F)c1)O2` (stereo not given) showed a Cmax (in vivo [8]) of 186 ng/mL, a Vd (in vivo [9]) of 2.3 L/kg and a bioavailability (in vivo [10]) of 7%. For the same compound, the solubility (physchem) was 59 µg/mL (≈ 122 µM).
`CCc1nc(N)nc(N)c1-c1ccc2c(c1)N(CCNC(C)=O)C(=O)C(C)(c1cc(F)cc(F)c1)O2` (racemic) showed a solubility [4] of 133 µg/mL (≈ 268 µM).
Work on `CCc1nc(N)nc(N)c1-c1ccc2c(c1)N(CCNC(C)=O)C(=O)C(C)(c1cc(F)cc(F)c1)O2` (stereo in doubt; 26) yielded a Vd [5] of 2.1 L/kg, a solubility (physchem) of 95 µg/mL (≈ 191 µM) and a Cmax [6] of 220 ng/mL. It also gave a bioavailability [7] of 8%.
Work on `CCc1nc(N)nc(N)c1-c1ccc2c(c1)N(CCNC(=O)CO)C(=O)C(C)(c1cc(F)cc(F)c1)O2` (stereo not given) yielded a Vd [5] of 2.9 L/kg and a solubility (physchem) of 59 µg/mL (≈ 115 µM).
For `CCc1nc(N)nc(N)c1-c1ccc2c(c1)N(CCNC(C)=O)C(=O)[C@](C)(c1ccccc1)O2`, the solubility (physchem) was 119 µg/mL (≈ 258 µM).
`CCc1nc(N)nc(N)c1-c1ccc2c(c1)N(CCCOC)C(=O)C(CC)(CC)O2` showed a solubility (physchem) of 16 µg/mL (≈ 38.7 µM).
`CCc1nc(N)nc(N)c1-c1ccc2c(c1)N(CCNC(C)=O)C(=O)C(C)(C(F)(F)F)O2` (stereo not given) showed a solubility (physchem) of 200 µg/mL (≈ 442 µM).
Compound `CCc1nc(N)nc(N)c1-c1ccc2c(c1)N(CCCOC)C(=O)C(C)(CC)O2` (stereo not given) has a solubility (physchem) of 54 µg/mL (≈ 135 µM).
For `CCc1nc(N)nc(N)c1-c1ccc2c(c1)N(CCCC(F)(F)F)C(=O)C(C)(c1cc(F)cc(F)c1)O2` (racemic), the Cmax (in vivo [8]) was 160 ng/mL, the Vd (in vivo [9]) was 5.1 L/kg and the bioavailability (in vivo [10]) was 12%. For the same compound, the solubility (physchem) was 5.2 µg/mL (≈ 9.97 µM).
For `CCc1nc(N)nc(N)c1-c1ccc2c(c1)N(CCNC(C)=O)C(=O)[C@@](C)(c1ccccc1)O2`, the solubility (physchem) was 40 µg/mL (≈ 86.9 µM).
For `CCc1nc(N)nc(N)c1-c1ccc2c(c1)N(CCCOC)C(=O)C(C)(C)O2`, the solubility (physchem) was 34 µg/mL (≈ 88.2 µM).
Compound `CCc1nc(N)nc(N)c1-c1ccc2c(c1)N(CCCO)C(=O)C(C)(c1cc(F)cc(F)c1)O2` (stereo not given) has a Vd [5] of 3.1 L/kg, a solubility (physchem) of 28 µg/mL (≈ 59.6 µM) and a Cmax [6] of 180 ng/mL. It also gave a bioavailability [7] of 44%.
For `CCc1nc(N)nc(N)c1-c1ccc2c(c1)N(CCNC(=O)OC)C(=O)C(C)(c1cc(F)cc(F)c1)O2` (stereo not given), the Cmax (in vivo [8]) was 280 ng/mL, the Vd (in vivo [9]) was 3.5 L/kg and the bioavailability (in vivo [10]) was 34%.
`CCc1nc(N)nc(N)c1-c1ccc2c(c1)N(CCNC(C)=O)C(=O)C(C)(c1cccc(Cl)c1)O2` (racemic) showed a solubility (physchem) of 133 µg/mL (≈ 269 µM).
With `CCc1nc(N)nc(N)c1-c1ccc2c(c1)N(CCNC(C)=O)C(=O)C(C)(c1cc(F)ccc1F)O2` (racemic) the solubility (physchem) was 2.3 µg/mL (≈ 4.63 µM).
Work on `CCc1nc(N)nc(N)c1-c1ccc2c(c1)N(CCC(=O)NC)C(=O)C(C)(c1cc(F)cc(F)c1)O2` (stereo not given) yielded a Vd [5] of 2.1 L/kg and a solubility (physchem) of 133 µg/mL (≈ 268 µM).
In the case of `CCc1nc(N)nc(N)c1-c1ccc2c(c1)N(CCCC(F)(F)F)C(=O)[C@](C)(c1cc(F)cc(F)c1)O2`, the Cmax (in vivo [8]) is reported as 380 ng/mL, the Vd (in vivo [9]) is reported as 5.7 L/kg and the bioavailability (in vivo [10]) is reported as 74%. It also gave a bioavailability [11] of 19%.
`CCOCCCN1C(=O)C(C)(c2cc(F)cc(F)c2)Oc2ccc(-c3c(N)nc(N)nc3CC)cc21` (stereo not given) gave a Cmax [1] of under 5 ng/mL, a bioavailability [2] of 0% and a Vd [3] of 2 L/kg. For the same compound, the solubility (physchem) was 59 µg/mL (≈ 119 µM).
For `CCc1nc(N)nc(N)c1-c1ccc2c(c1)N(CCCOC)C(=O)C(C)(c1ccc(F)c(F)c1)O2` (racemic), the solubility (physchem) was 13 µg/mL (≈ 26.9 µM).
For `CCc1nc(N)nc(N)c1-c1ccc2c(c1)N(CCO)C(=O)C(C)(c1cc(F)cc(F)c1)O2` (stereo not given), the Vd (in vivo [9]) was 3.3 L/kg and the solubility (physchem) was 89 µg/mL (≈ 195 µM).
Work on `CCc1nc(N)nc(N)c1-c1ccc2c(c1)N(CCNC(C)=O)C(=O)C(C)(c1cccc(C(F)(F)F)c1)O2` (racemic) yielded a solubility (physchem) of 12 µg/mL (≈ 22.7 µM).
For `CCc1nc(N)nc(N)c1-c1ccc2c(c1)N(CCNC(C)=O)C(=O)C(C)(c1ccc(Cl)cc1)O2` (racemic), the solubility (physchem) was 12 µg/mL (≈ 24.2 µM).
Compound `CCc1nc(N)nc(N)c1-c1ccc2c(c1)N(CCNS(C)(=O)=O)C(=O)C(C)(c1cc(F)cc(F)c1)O2` (stereo not given) has a solubility (physchem) of 200 µg/mL (≈ 376 µM).
Compound `CCc1nc(N)nc(N)c1-c1ccc2c(c1)N(CCCOC)C(=O)C(C)(c1cc(F)cc(F)c1)O2` (stereo in doubt; 25) has a solubility (physchem) of 87 µg/mL (≈ 180 µM).
`CCc1nc(N)nc(N)c1-c1ccc2c(c1)N(CCCC#N)C(=O)C(C)(c1cc(F)cc(F)c1)O2` (stereo not given) showed a Cmax (in vivo [8]) of 237 ng/mL, a Vd (in vivo [9]) of 1.9 L/kg and a bioavailability (in vivo [10]) of 12%. The solubility (physchem) was 3.5 µg/mL (≈ 7.31 µM).
`CCc1nc(N)nc(N)c1-c1ccc2c(c1)N(CCNC(C)=O)C(=O)C1(CC1)O2` gave a solubility (physchem) of 24 µg/mL (≈ 60.5 µM).
